Source: patent publication US20190382396A1, “SALTS OF BICYCLO[1.1.1]PENTANE INHIBITORS OF DUAL LEUCINE ZIPPER (DLK) KINASE FOR THE TREATMENT OF DISEASE” (Board of Regents, The University of Texas System, priority 2018, published 2019)

Test: Solubility of hydrogen fumarate salt 11 (1000 mg scale-up batch)
Format: physicochemical

Measured: solubility

CC(C)c1nc(-c2cnc(N)c(OC(F)(F)F)c2)cn1C12CC(N3CCOCC3)(C1)C2.O=C(O)/C=C/C(=O)O [Example 11, 5-(2-isopropyl-1-(3-morpholinobicyclo[1.1.1]pentan-1-yl)-1H-imidazol-4-yl)-3-(trifluoromethoxy)pyridin-2-amine hydrogen fumarate]
10 to 20 mg/mL: organic solvent or mixture, Acetone, 50° C. | organic solvent or mixture, IPA, RT | organic solvent or mixture, MEK, 50° C. | water, H2O, 50° C.
< 33 mg/mL: aqueous with cosolvent or surfactant or cyclodextrin, 1/1 (v/v) Acetone/H2O, RT
< 100 mg/mL: organic solvent or mixture, DMSO, RT
50 to 100 mg/mL: aqueous with cosolvent or surfactant or cyclodextrin, 1/1 (v/v) Acetone/H2O, 50° C. | aqueous with cosolvent or surfactant or cyclodextrin, 1/1 (v/v) EtOH/H2O, 50° C. | organic solvent or mixture, MeOH, 50° C.
< 10 mg/mL: organic solvent or mixture, ACN, 50° C. | organic solvent or mixture, ACN, RT | organic solvent or mixture, Acetone, RT | organic solvent or mixture, DCM, 50° C. | organic solvent or mixture, DCM, RT | organic solvent or mixture, EtOAc, 50° C. | organic solvent or mixture, EtOAc, RT | organic solvent or mixture, Heptane, 50° C. | organic solvent or mixture, Heptane, RT | organic solvent or mixture, MEK, RT | organic solvent or mixture, MTBE, 50° C. | organic solvent or mixture, MTBE, RT | organic solvent or mixture, THF, RT | organic solvent or mixture, Toluene, 50° C. | organic solvent or mixture, Toluene, RT | water, H2O, RT
> 100 mg/mL: organic solvent or mixture, DMF, RT | organic solvent or mixture, DMSO, 50° C.
33 to 50 mg/mL: organic solvent or mixture, THF, 50° C.
< 20 mg/mL: ethanol, organic solvent or mixture, EtOH, RT | organic solvent or mixture, Dioxane, RT
20 to 33 mg/mL: aqueous with cosolvent or surfactant or cyclodextrin, 1/1 (v/v) EtOH/H2O, RT | ethanol, organic solvent or mixture, EtOH, 50° C. | organic solvent or mixture, Dioxane, 50° C. | organic solvent or mixture, IPA, 50° C.
25 to 50 mg/mL: organic solvent or mixture, MeOH, RT
